# Measured values: patent publication EP4438597A1, “2-STYRYLBENZOTHIAZOLE DERIVATIVES AS A-SYNUCLEIN BINDING COMPOUNDS” (Eberhard Karls Universität Tübingen Medizinische Fakultät, priority 2023, dated 2024)
# What was measured:
# αSYN pathology = target: T1, αSYN pathology (Homo sapiens, UniProt P37840); assay: in vitro autoradiography on human brain slices with αSYN pathology (MSA, PD); type: binding; conditions: 10 nM tracer, NSB with 10 µM non-radioactive compound
# T1 construct: tissue Neurobiobank München (NBM, Munich, Germany); host or cells: post-mortem human brain slices (MSA cerebellum, PD frontal cortex, controls)
# Protocol: Post-mortem human brain slices (10 µm thickness) were obtained from and the subject cases were analyzed by the Neurobiobank München (NBM, Munich, Germany), where tissues were collected on the basis of written informed consent according to the guidelines of the ethics committee of the Ludwig-Maximilians-University Munich, Germany (# 345-13). The use of brain tissue samples in this study was approved by the ethics committee of the Faculty of Medicine at the University of Tuebingen (Ethics approval number: 813/2018BO2). Table 1 summarizes the information of the subjects from which samples were obtained and used in the experiment.
# For autoradiography, brain slices were thawed for one hour before preincubation in BSA buffer for 25 minutes at room temperature. To determine total binding (TB), brain slices were incubated with the tracer (10 nM [^18F]PFSB, 10 nM [^18F]MFSB). […]
# Quantitative data analysis was performed by drawing four regions of interest (ROIs) in relevant areas of the slice and one ROI next to it for background subtraction (imaged 1.8.0_172, National Institute of Health, Bethesda, Maryland, USA) (Schneider, C. A. et al., NIH Image to imaged: 25 years of image analysis; Nat Methods 2012, 9 (7), 671-5). […] The SB disease/SB control ratio was calculated by dividing by the SB in diseased tissues with the respective SB in control tissues.
# [1] = in vivo dynamic PET/MR imaging, pharmacokinetic profile; conditions: healthy wild-type mice, i.v.
# Protocol: The animal experiments were performed in compliance to the European directives on the protection and use of laboratory animals (Council Directive 2010/63/UE) and the German animal welfare act with approval from the local authorities (Regierungspräsidium Tuebingen, R3/19G). Three healthy wild-type female C57BU6J mice (20.3 ± 0.9 g; 9 weeks old) purchased from Charles River Laboratories (Sulzbach, Germany) were maintained in a vivarium on a 12:12 hour light dark cycle and were kept at a temperature of 22°C with 40-60% humidity and free access to a standard diet and tap water.
# The mice (n = 3) were anaesthetized with 1.5% isoflurane evaporated in 100% oxygen at a flow rate of 0.8 L/min. Body temperature of 37°C was maintained using a feedback temperature control unit. PET imaging studies were performed on Inveon dedicated microPET system (Inveon D-PET, Siemens, Knoxville, TN, USA). Five seconds after the start of PET acquisition, mice were injected intravenously with 9.9 ± 0.6 MBq of [^18F]MFSB (Am = 46.2 ± 2.5 GBq/µmol at time of injection). The one-hour dynamic acquisitions were divided into 39 time frames (12×5 s, 6×10 s, 6×30 s, 5×60 s and 10×300 s). A 13-minute transmission measurement with a cobalt-57 point source was performed for attenuation correction. Subsequently, an anatomical magnetic resonance (MR) scan with a 7 Tesla MR scanner (ClinScan, Bruker BioSpin MRI GmbH, Ettlingen, Germany) using a rat whole-body volume coil and the Paravision software (v6.0.1, Bruker, Ettlingen, Germany) using a T2-weighted Turbo-RARE MRI sequence.
# The PET image was reconstructed via the OSEM3D/SP-MAP reconstruction algorithm and coregistered to the whole-body MRI scan. […] Standardized uptake values (SUVs) were calculated as a ratio of the detected activity with injected activity and weight (SUV = (TAC (kBq/cc) / inj. activity (kBq)) * weight (g)).
smiles,measurement,setting,value
[18F]c1ccc2nc(/C=C/c3ccc(N4CCOCC4)cc3)sc2c1 [[^18F]MFSB],"SB disease/SB control, MSA1/cerebellum ctrl",αSYN pathology,1.20
same,crossing of the BBB,[1]; dynamic PET/MR over 60 min,crossing of the BBB was successful
same,kidney uptake,[1]; dynamic PET/MR over 60 min,Significant kidney uptake
same,SUV in lungs and liver,[1]; first 2 min,≈ 5
